Test results taken from ChEMBL document CHEMBL3875157, “Neurodegenerative diseases linked to misfolded proteins and their therapeutic approaches: A review” (Eur J Med Chem, 2016).

Molecular target: Acetylcholinesterase (Homo sapiens, UniProt P22303)
Test: Inhibition of acetylcholinesterase (unknown origin)

Sequence of Acetylcholinesterase (P22303 whole entry): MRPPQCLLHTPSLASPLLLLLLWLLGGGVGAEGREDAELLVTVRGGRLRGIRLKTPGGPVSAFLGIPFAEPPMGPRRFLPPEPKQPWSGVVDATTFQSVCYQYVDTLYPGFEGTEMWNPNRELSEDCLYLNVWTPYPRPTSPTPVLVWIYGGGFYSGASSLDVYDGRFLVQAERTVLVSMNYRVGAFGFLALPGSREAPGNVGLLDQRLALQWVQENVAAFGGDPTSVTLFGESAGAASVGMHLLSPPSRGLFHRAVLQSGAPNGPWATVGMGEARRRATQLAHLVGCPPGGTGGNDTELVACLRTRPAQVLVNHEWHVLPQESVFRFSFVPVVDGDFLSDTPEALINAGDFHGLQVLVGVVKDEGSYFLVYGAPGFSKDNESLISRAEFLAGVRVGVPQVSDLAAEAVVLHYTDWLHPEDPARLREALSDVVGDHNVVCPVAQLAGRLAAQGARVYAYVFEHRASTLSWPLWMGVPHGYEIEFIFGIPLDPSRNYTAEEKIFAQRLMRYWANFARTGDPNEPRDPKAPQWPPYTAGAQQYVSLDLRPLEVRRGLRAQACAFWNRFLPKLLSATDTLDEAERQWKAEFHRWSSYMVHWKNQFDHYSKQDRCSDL

CCOC(=O)C1=C(C)Oc2nc3c(c(N)c2C1c1ccc(OC)cc1)CCCC3 (stereo unspecified)
IC50: 182 to 868 nM
